≈ marks a conversion by molar mass, not a printed value.
What was measured:
[1] = test system: Oryctolagus cuniculus; test: Effect on local hemorrhage in Staphylococcus aureus ATCC 13565 infected New Zealand white rabbit hip assessed as total volume of drainage fluid at 3 g administered drug-loaded acrylic bone cement implanted in hips treated with 300 mW/cm2 normal ultrasound for 0 to 12 hrs after surgery; format: ADME, organism-based; conditions: in vivo, other
[2] = test system: Oryctolagus cuniculus; test: Effect on local hemorrhage in Staphylococcus aureus ATCC 13565 infected New Zealand white rabbit hip assessed as total volume of drainage fluid at 3 g administered drug-loaded acrylic bone cement implanted in hips treated with 300 mW/cm2 normal ultrasound for 12 to 24 hrs after surgery; format: ADME, organism-based; conditions: in vivo, other
[3] = test system: Staphylococcus aureus; test: (§1) Antimicrobial activity against Staphylococcus aureus ATCC 13565 infected in New Zealand white rabbit assessed as reduction of bacterial count in hip aspirates at 3 g administered drug-loaded in acrylic bone cement implanted in hips treated with 300 mW/cm2 normal ultrasound for 0 to 12 hrs after surgery; format: functional
[4] = test system: Staphylococcus aureus; test: as §1, with “for 12” for “for 0”, “to 24” for “to 12”; format: functional
[5] = test system: Staphylococcus aureus; test: as §1, with “per gram of femoral tissue” for “in hip aspirates”; format: functional
[6] = test system: Staphylococcus aureus; test: as §1, with “count per gram of femoral tissue” for “count in hip aspirates”, “for 12” for “for 0”, “to 24” for “to 12”; format: functional
[7] = test system: Staphylococcus aureus; test: T>MIC in Staphylococcus aureus ATCC 13565 infected New Zealand white rabbit at 3 g administered drug-loaded acrylic bone cement implanted in hips after 48 hrs surgery without ultrasound; format: ADME, organism-based; conditions: in vivo, other
[8] = test system: Staphylococcus aureus; test: T>MIC in Staphylococcus aureus ATCC 13565 infected New Zealand white rabbit at 3 g administered drug-loaded acrylic bone cement implanted in hips at 3 g exposed to 300 mW/cm2 delayed ultrasound for 0 to 12 hrs; format: ADME, organism-based; conditions: in vivo, other
[9] = test system: Staphylococcus aureus; test: T>MIC in Staphylococcus aureus ATCC 13565 infected New Zealand white rabbit at 3 g administered drug-loaded acrylic bone cement implanted in hips exposed to 300 mW/cm2 delayed ultrasound for 12 to 24 hrs; format: ADME, organism-based; conditions: in vivo, other
[10] = test system: Staphylococcus aureus; test: microbe, parasite or virus in culture; conditions: ATCC 13565
Description: Antibacterial activity against Staphylococcus aureus ATCC 13565 by tube dilution method

Q: Which Activity [1] does the source give for `CN[C@H](CC(C)C)C(=O)N[C@H]1C(=O)N[C@@H](CC(N)=O)C(=O)N[C@H]2C(=O)N[C@H]3C(=O)N[C@H](C(=O)N[C@H](C(=O)O)c4cc(O)cc(O)c4-c4cc3ccc4O)[C@H](O)c3ccc(c(Cl)c3)Oc3cc2cc(c3O[C@@H]2O[C@H](CO)[C@@H](O)[C@H](O)[C@H]2O[C@H]2C[C@](C)(N)[C@H](O)[C@H](C)O2)Oc2ccc(cc2Cl)[C@H]1O` [VANCOMYCIN] here?
A: Its Activity is 4.65 mL.

Q: And the Activity [2]?
A: Its Activity is 1.32 mL.

Q: And the log10CFU/ml [3]?
A: Its log10CFU/ml is 1.62.

Q: And the log10CFU/ml [4]?
A: Its log10CFU/ml is 2.77.

Q: What about the log10cfu [5] of the same compound?
A: Its log10cfu is 0.53.

Q: And the log10cfu [6]?
A: Its log10cfu is 1.29.

Q: And the “T>MIC” value [7]?
A: Its value is 14.89 h.

Q: And the “T>MIC” value [8]?
A: Its value is 13.59 h.

Q: And the “T>MIC” value [9]?
A: The value was 35.4 h.

Q: And the MBC [10]?
A: Its MBC is 3 µg/mL (≈ 2.07 µM).

From ChEMBL document CHEMBL1154424, “Effect of delayed pulsed-wave ultrasound on local pharmacokinetics and pharmacodynamics of vancomycin-loaded acrylic bone cement in vivo” (Antimicrob Agents Chemother, 2007)
